According to patent US20260201008A1, “SECRETIN-DERIVED GLP1R SELECTIVE AGONISTS” (GUBRA A/S, priority 2023, published 2026):
Like-named read-outs stand apart in the source and are kept apart here. Numbered stars: 1 amine (or outer) side, 2 acyl side, 3 side chain; on linkers, the order of the positions; unused ones are H or OH. Square brackets hold non-standard residues; d marks the D form. Side chains are listed from the residue outwards. Peptide text beside a SMILES is read from it. * marks the point of attachment. C20 diacid = O=C(O)CCCCCCCCCCCCCCCCCCC(=O)*; γGlu = O=C(O)[C@H](CCC(=O)[*:2])N[*:1]; AEEA = NCCOCCOCC(=O)O; Aib = CC(C)(N)C(=O)O

Key:
[1] = Fibril formation of crude library peptides (Thioflavin T); type: physicochemical; set-up: key: average ThT fluorescence emission at 480 nm (ex 450 nm), raw units; conditions: Physical stability of peptides
Method in brief: (§1)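 Turbidity is the absorbance at 600 nm, taken before heating. Fibril signal is the mean ThT emission at 480 nm (450 nm excitation), read every 10 min over 72 h at 40° C with 700 rpm shaking between reads. Peptides at 267 μM, pH 4.0 acetate or pH 7.0 phosphate buffer (50 mM), 4 μM ThT final.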

[2] = Turbidity of crude library peptides (absorbance at 600 nm); type: physicochemical; conditions: Physical stability of peptides
Method in brief: as §1

SCTR = SCTR (Homo sapiens, UniProt P47872); assay: hSCTR potency, cAMP accumulation in CHO-K1 cells stably overexpressing hSCTR; type: cell-based; set-up: alternatively Euroscreen ES-712-AF; FAST-0161L; host or cells: CHO-K1
SCTR, sequence (P47872 23-440): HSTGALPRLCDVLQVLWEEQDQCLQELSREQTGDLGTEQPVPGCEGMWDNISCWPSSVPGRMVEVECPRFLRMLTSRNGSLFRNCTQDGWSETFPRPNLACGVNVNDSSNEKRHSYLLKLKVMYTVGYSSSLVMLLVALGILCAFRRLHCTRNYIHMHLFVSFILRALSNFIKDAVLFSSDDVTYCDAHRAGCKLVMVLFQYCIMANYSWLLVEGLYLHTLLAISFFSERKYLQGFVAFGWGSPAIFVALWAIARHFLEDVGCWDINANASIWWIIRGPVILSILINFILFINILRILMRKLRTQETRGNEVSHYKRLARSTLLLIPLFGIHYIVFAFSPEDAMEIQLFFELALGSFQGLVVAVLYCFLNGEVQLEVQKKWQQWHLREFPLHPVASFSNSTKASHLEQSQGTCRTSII
Method in brief: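 Thawed CHO-K1 cells carrying stable hSCTR are plated into casein/IBMX buffer (0.05%, 0.5 mM), dosed immediately for 30 min at room temperature, then cAMP is detected by TR-FRET. Purified peptides run as 11 three-fold dilutions in duplicate, and curves are fitted with variable slope.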

GLP1R = GLP1R (Homo sapiens, UniProt P43220); assay: hGLP1R potency, cAMP accumulation in CHO-K1 cells stably overexpressing hGLP1R; type: cell-based; set-up: host or cells: CHO-K1; conditions: for SCTR EC50/GLP1R EC50 ratio: selectivity for hGLP1R over hSCTR, cAMP accumulation in CHO-K1 cells
GLP1R, sequence (P43220 24-463): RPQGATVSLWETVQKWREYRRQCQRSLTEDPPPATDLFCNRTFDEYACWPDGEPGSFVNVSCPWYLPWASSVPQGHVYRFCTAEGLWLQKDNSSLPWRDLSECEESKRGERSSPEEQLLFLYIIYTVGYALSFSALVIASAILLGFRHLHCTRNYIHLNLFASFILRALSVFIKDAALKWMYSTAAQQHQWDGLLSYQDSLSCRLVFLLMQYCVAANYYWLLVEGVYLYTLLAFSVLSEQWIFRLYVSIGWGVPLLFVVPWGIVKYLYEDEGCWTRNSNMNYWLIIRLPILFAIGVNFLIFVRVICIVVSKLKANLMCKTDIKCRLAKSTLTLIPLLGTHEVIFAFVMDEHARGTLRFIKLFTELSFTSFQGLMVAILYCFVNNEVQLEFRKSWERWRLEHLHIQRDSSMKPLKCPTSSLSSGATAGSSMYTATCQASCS
Method in brief: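 2000 cells/well, DPBS + 0.05% casein + 0.5 mM IBMX; 30 min RT stimulation; HTRF cAMP detection after 1 h. Purified: 3-fold ×11, n=2; crude: 10-fold ×5, n=1. EC50 by variable-slope fit.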

[3] = cAMP accumulation, CHO-K1 cells overexpressing hSCTR, read-out: hSCTR pEC50 (converted)
[4] = cAMP accumulation, CHO-K1 cells overexpressing hGLP1R, read-out: hGLP1R pEC50 (converted)

Row | Fibril formation [1] | Turbidity (pH 7) [2] | EC50 (SCTR; [3]) [nM] | EC50 (GLP1R; [4]) [nM] | SCTR EC50/GLP1R EC50 ratio (GLP1R) | Compound | EC50 (SCTR) [nM] | EC50 (GLP1R) [nM] | Selectivity (GLP1R; SCTR EC50/GLP1R EC50 ratio)
1 | 4303 | 0.08 | 398 | 0.0158 | 23332 | CC(C)C[C@H](NC(=O)[C@H](Cc1ccccc1)NC(=O)[C@H](CCCNC(=N)N)NC(=O)[C@H](CCC(N)=O)NC(=O)[C@H](CC(C)C)NC(=O)C(C)(C)NC(=O)[C@H](C)NC(=O)[C@H](CCC(=O)O)NC(=O)[C@H](CCC(=O)O)NC(=O)[C@H](CCCCNC(=O)COCCOCCNC(=O)COCCOCCNC(=O)CC[C@H](NC(=O)CCCCCCCCCCCCCCCCCCC(=O)O)C(=O)O)NC(=O)[C@H](CC(C)C)NC(=O)[C@H](Cc1ccc(O)cc1)NC(=O)[C@H](CO)NC(=O)[C@@H](NC(=O)[C@H](CC(=O)O)NC(=O)[C@H](CO)NC(=O)[C@@H](NC(=O)[C@H](Cc1ccccc1)NC(=O)[C@@H](NC(=O)CNC(=O)[C@H](CCC(=O)O)NC(=O)C(C)(C)NC(=O)[C@@H](N)Cc1c[nH]cn1)[C@@H](C)O)[C@@H](C)O)C(C)C)C(=O)N[C@@H](CCC(=O)O)C(=O)N[C@@H](Cc1ccccc1)C(=O)N[C@@H](CC(C)C)C(=O)N[C@H](C(N)=O)C(C)C [compound 133] (H-H[Aib]EGTFTSDVSYLK([AEEA-AEEA-γGlu-C20 diacid])EEA[Aib]LQRFLEFLV-NH2) | – | – | –
2 | 3897 | 0.08 | 316 | 0.02 | 16095 | CC(C)C[C@H](NC(=O)[C@H](Cc1ccccc1)NC(=O)[C@H](CCCNC(=N)N)NC(=O)[C@H](CCC(N)=O)NC(=O)[C@H](CC(C)C)NC(=O)C(C)(C)NC(=O)[C@H](C)NC(=O)[C@H](CCC(=O)O)NC(=O)[C@H](CCC(=O)O)NC(=O)[C@H](CCCCNC(=O)COCCOCCNC(=O)COCCOCCNC(=O)CC[C@H](NC(=O)CCCCCCCCCCCCCCCCCCC(=O)O)C(=O)O)NC(=O)[C@H](CC(C)C)NC(=O)[C@H](CC(=O)O)NC(=O)[C@H](CO)NC(=O)[C@@H](NC(=O)[C@H](CC(=O)O)NC(=O)[C@H](CO)NC(=O)[C@@H](NC(=O)[C@H](Cc1ccccc1)NC(=O)[C@@H](NC(=O)CNC(=O)[C@H](CCC(=O)O)NC(=O)C(C)(C)NC(=O)[C@@H](N)Cc1c[nH]cn1)[C@@H](C)O)[C@@H](C)O)C(C)C)C(=O)N[C@@H](CCC(=O)O)C(=O)N[C@@H](Cc1c[nH]cn1)C(=O)N[C@@H](CC(C)C)C(=O)N[C@H](C(N)=O)C(C)C [compound 153] (H-H[Aib]EGTFTSDVSDLK([AEEA-AEEA-γGlu-C20 diacid])EEA[Aib]LQRFLEHLV-NH2) | – | – | –

Row | Compound | Fibril formation [1] | Turbidity (pH 7) [2] | EC50 (SCTR; [3]) [nM] | EC50 (GLP1R; [4]) [nM] | SCTR EC50/GLP1R EC50 ratio (GLP1R) | EC50 (SCTR) [nM] | EC50 (GLP1R) [nM] | Selectivity (GLP1R; SCTR EC50/GLP1R EC50 ratio)
3 | CC(C)C[C@H](NC(=O)[C@H](Cc1ccccc1)NC(=O)[C@H](CCCNC(=N)N)NC(=O)[C@H](CCC(N)=O)NC(=O)[C@@H](NC(=O)[C@H](C)NC(=O)[C@H](C)NC(=O)[C@@H](NC(=O)[C@H](CCC(=O)O)NC(=O)[C@H](CCCCNC(=O)COCCOCCNC(=O)COCCOCCNC(=O)CC[C@H](NC(=O)CCCCCCCCCCCCCCCCCCC(=O)O)C(=O)O)NC(=O)[C@H](CC(C)C)NC(=O)[C@H](Cc1ccc(O)cc1)NC(=O)[C@H](CO)NC(=O)[C@@H](NC(=O)[C@H](CC(=O)O)NC(=O)[C@H](CO)NC(=O)[C@@H](NC(=O)[C@H](Cc1ccccc1)NC(=O)[C@@H](NC(=O)CNC(=O)[C@H](CCC(=O)O)NC(=O)C(C)(C)NC(=O)[C@@H](N)Cc1c[nH]cn1)[C@@H](C)O)[C@@H](C)O)C(C)C)[C@@H](C)O)[C@@H](C)O)C(=O)N[C@@H](CCC(=O)O)C(=O)N[C@@H](Cc1c[nH]cn1)C(=O)N[C@@H](CC(C)C)C(=O)N[C@H](C(N)=O)C(C)C [compound 4] (H-H[Aib]EGTFTSDVSYLK([AEEA-AEEA-γGlu-C20 diacid])ETAATQRFLEHLV-NH2) | 32222 | 0.08 | – | – | – | 100 | 0.00794 | 13928
